In US9133125B2, “Morphan and morphinan analogues, and methods of use” (priority 2013, dated 2015):

Test system: Male Sprague-Dawley rats
Assay: Thermal pain assay (rodent hot plate model)
Format: in vivo
Settings: rat, dose of 10 mg/kg, subcutaneous

Compound | antinociceptive effect, hot plate
Cl.NC(=O)c1ccc2c(c1O)[C@]13CCN(CC4CCC4)[C@H](C2)[C@]1(O)CC[C@H](O)C3 [Compound C, (4bR,6S,8aS,9R)-11-(cyclobutylmethyl)-4,6,8a-trihydroxy-6,7,8,8a,9,10-hexahydro-5H-9,4b-(epiminoethano)phenanthrene-3-carboxamide] | no antinociceptive effect
Cl.NC(=O)c1ccc2c(c1O)[C@]13CCN(CC4CCC4)[C@H](C2)[C@]1(O)CC[C@@H](O)C3 [Compound D, (4bR,6R,8aS,9R)-11-(cyclobutylmethyl)-4,6,8a-trihydroxy-6,7,8,8a,9,10-hexahydro-5H-9,4b-(epiminoethano)phenanthrene-3-carboxamide] | no antinociceptive effect
